Experimental data taken from patent US20200172483A1, “HETEROCYCLIC SMALL MOLECULE MODULATORS OF HUMAN STING” (Curadev Pharma Limited, priority 2017, published 2020).

Columns and labels:
[1] = biological target: T1, WT/R232 STING protein (Homo sapiens, UniProt Q86WV6, H232R); experiment: Luciferase reporter assay in HEK293T-hSTING-Luciferase cells (R232); format: cell-based; details: 20 hr stimulation, EC50 range
T1 construct: host or cells: HEK293T
How it was run: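 Readout is fold-induction over baseline of secreted luciferase, measured by luminescence after 20 hr compound stimulation. Cells: clonally selected HEK293T stably carrying hSTING (R232) and a luciferase reporter under five tandem ISREs fused to an ISG54 minimal promoter.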

[2] = biological target: T2, hSTING (H232) (Homo sapiens, UniProt Q86WV6); experiment: Luciferase reporter assay in HEK293T-hSTING-Luciferase cells (H232/REF polymorph); format: cell-based; details: EC50 range
T2 construct: host or cells: HEK293T
T2 sequence (Q86WV6 whole entry): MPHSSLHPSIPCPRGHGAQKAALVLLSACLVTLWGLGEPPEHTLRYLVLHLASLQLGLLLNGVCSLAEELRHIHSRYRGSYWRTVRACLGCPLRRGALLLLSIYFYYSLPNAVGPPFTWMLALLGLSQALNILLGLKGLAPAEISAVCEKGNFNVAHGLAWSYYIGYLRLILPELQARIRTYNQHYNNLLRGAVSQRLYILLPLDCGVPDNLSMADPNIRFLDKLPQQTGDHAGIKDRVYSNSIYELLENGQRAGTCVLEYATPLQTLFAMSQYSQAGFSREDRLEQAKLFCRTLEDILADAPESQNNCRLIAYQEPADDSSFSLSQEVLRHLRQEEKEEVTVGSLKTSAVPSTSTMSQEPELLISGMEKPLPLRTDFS
Excerpt: (§1) • a) Stable STING expressing cells—Stable HEK293T STING-expressing cell lines were generated using plasmids purchased from Invivogen, CA, USA, that contain STING cDNA cloned into the pUNO-1 vector under hEF1-HTLV promoter and containing the Blasticidin selection cassette. The plasmids hSTING (R232), hSTING (H232), hSTING (HAQ) were directly procured from Invivogen while hSTING (AQ) and hSTING (Q) were derived from hSTING (HAQ) and hSTING (R232) plasmids respectively by using a PCR based site directed mutagenesis method. These vectors were individually transfected into HEK293T cells using Lipofectamine (Invitrogen) and transfected cells were selected under Blasticidin selection. These transfected cells were further subjected to clonal selection using the limiting dilution method to obtain clonally pure populations of HEK cells transfected with each of the above mentioned human STING variants. Only those clones were selected in which ligand independent activation of STING was minimal. • b) Stable Luciferase reporter gene expressing cells—Stable HEK293T Luciferase reporter gene expressing cell lines were generated using pCDNA4 plasmids under an IRF-inducible promoter. This promoter is comprised of five tandem interferon-stimulated response elements (ISRE) fused to an ISG54 minimal promoter. This vector was transfected into HEK293T cells using Lipofectamine (Invitrogen) and transfected cells were selected under Zeocin selection. These transfected cells were further subjected to clonal selection using the limiting dilution method to obtain clonally pure populations of HEK cells transfected the Luciferase reporter construct. Only those clones were selected in which ligand independent induction of luciferase was minimal.
(§2) 5×10^5 clonally selected HEK293T-hSTING-Luciferase cells were seeded in 384-well plates in growth medium and stimulated with novel compounds. After 20 hr of stimulation supernatant were removed and secretary reporter gene activity were measured using the Quanti-Luc detection system (Invivogen) on a Spectramax i3X luminometer.
(§3) The 5 major polymorphisms of human STING are shown in FIG. 1, with their prevalence in human populations indicated.

[3] = biological target: T3, hSTING (HAQ) (Homo sapiens, UniProt Q86WV6, G230A/H232R/R293Q/R71H); experiment: Luciferase reporter assay in HEK293T-hSTING-Luciferase cells (HAQ polymorph); format: cell-based; details: EC50 range
T3 construct: host or cells: HEK293T
T3 sequence (Q86WV6 whole entry R71H/G230A/H232R/R293Q): as the sequence (Q86WV6 whole entry) above, with R71H, G230A, H232R, R293Q counted along it
Excerpt: as §1, §2, §3

[4] = test system: IRF pathway; experiment: Reporter gene expression assay for IRF axis in THP1-Dual cells (secreted Lucia luciferase); format: cell-based, human; details: Homo sapiens, THP1-Dual, 20 h, 20 hr stimulation, QUANTI-Luc, EC50 range, read-out: THP-IRF activity
How it was run: (§4)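 THP1-Dual cells (THP-1 monocytes with inducible NF-κB-SEAP and IRF-Lucia reporters; 5×10^5 cells) were stimulated with compounds for 20 hr. Secreted SEAP (QUANTI-Blue) and Lucia luciferase (QUANTI-Luc) were then measured in the supernatant. EC50 values are reported as ranges.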

[5] = test system: NF-κB pathway; experiment: Reporter gene expression assay for NFκB axis in THP1-Dual cells (secreted SEAP); format: cell-based, human; details: Homo sapiens, THP1-Dual, 20 h, 20 hr stimulation, QUANTI-Blue SEAP, EC50 range, read-out: THP-NFKB activity
How it was run: as §4

T1 sequence (Q86WV6 whole entry H232R): as the sequence (Q86WV6 whole entry) above, with H232R counted along it

| SMILES | EC50 [1] | EC50 [2] | EC50 [3] | EC50 [4] | EC50 [5] |
| --- | --- | --- | --- | --- | --- |
| Cc1cccc(CNC(=O)c2ccc3c(c2)N(Cc2c(F)cccc2Cl)C(=O)C3(C)C)c1 [Example 8, 1-(2-chloro-6-fluorobenzyl)-3,3-dimethyl-N-(3-methylbenzyl)-2-oxoindoline-6-carboxamide] | ≤ 1 µM | 1 to 10 µM | 1 to 10 µM | > 10 µM | 1 to 10 µM |
| Cc1ccc(CNC(=O)c2ccc3c(c2)N(Cc2cc(F)cc(F)c2)C(=O)C3(C)C)o1 [Example 16, 1-(3,5-difluorobenzyl)-3,3-dimethyl-N-((5-methylfuran-2-yl)methyl)-2-oxoindoline-6-carboxamide] | 1 to 10 µM | 1 to 10 µM | 1 to 10 µM | > 10 µM | > 10 µM |
| CC1(C)C(=O)N(Cc2ccccc2F)c2cc(C(=O)NCc3c(F)cc(F)cc3F)ccc21 [Example 6, 1-(2-fluorobenzyl)-3,3-dimethyl-2-oxo-N-(2,4,6-trifluorobenzyl)indoline-6-carboxamide] | ≤ 1 µM | ≤ 1 µM | ≤ 1 µM | 1 to 10 µM | 1 to 10 µM |
| CC1(C)C(=O)N(Cc2cccc(N=[N+]=[N-])c2)c2cc(C(=O)NCc3c(F)cc(F)cc3F)ccc21 [Example 57, 1-(3-azidobenzyl)-3,3-dimethyl-2-oxo-N-(2,4,6-triflurobenzyl)indoline-6-carboxamide] | 1 to 10 µM | 1 to 10 µM | 1 to 10 µM | > 10 µM | > 10 µM |
| CC1(Cl)C(=O)N(Cc2c(F)cccc2Cl)c2cc(C(=O)NCc3c(F)cc(F)cc3F)ccc21 (centres unmarked) [Example 146, 3-chloro-1(2-chloro-6-fluorobenzyl)-3-methyl-2-oxo-N-(2,4,6-trifluorobenzyl)indoline-6-carboxamide] | ≤ 1 µM | 1 to 10 µM | 1 to 10 µM | > 10 µM | 1 to 10 µM |
| Cc1cc(CN2C(=O)C(C)(C)c3ccc(C(=O)NCc4c(F)cc(F)cc4F)cc32)nn1C [Example 81, 1-((1,5-dimethyl-1H-pyrazol-3-yl)methyl)-3,3-dimethyl-2-oxo-N-(2,4,6-trifluorobenzyl)indoline-6-carboxamide] | 1 to 10 µM | 1 to 10 µM | 1 to 10 µM | 1 to 10 µM | 1 to 10 µM |
| Cc1ccc(CNC(=O)c2ccc3c(c2)N(Cc2c(F)cccc2F)C(=O)C3(C)C)o1 [Example 50, 1-(2,6-difluorobenzyl)-3,3-dimethyl-N-((5-methylfuran-2-yl)methyl)-2-oxoindoline-6-carboxamide] | 1 to 10 µM | 1 to 10 µM | 1 to 10 µM | > 10 µM | > 10 µM |
| C=CCC1(C)C(=O)N(Cc2cc(C)nn2CC)c2cc(C(=O)NCc3c(F)cc(F)cc3F)ccc21 (centres unmarked) [Example 175, 3-allyl-1-((1-ethyl-3-methyl-1H-pyrazol-5-yl)methyl)-3-methyl-2-oxo-N-(2,4,6-trifluorobenzyl)indoline-6-carboxamide] | 1 to 10 µM | 1 to 10 µM | 1 to 10 µM | 1 to 10 µM | 1 to 10 µM |
| CC1(C)C(=O)N(Cc2cc(F)cc(F)c2)c2cc(C(=O)NCc3cc4ccccc4o3)ccc21 [Example 23, N-(benzofuran-2-ylmethyl)-1-(3,5-difluorobenzyl)-3,3-dimethyl-2-oxoindoline-6-carboxamide] | ≤ 1 µM | 1 to 10 µM | 1 to 10 µM | > 10 µM | 1 to 10 µM |
| Cc1nn(C)c(CN2C(=O)C(C)(C)c3ccc(C(=O)NCc4c(F)cc(F)cc4F)cc32)c1Br [Example 106, 1-((4-bromo-1,3-dimethyl-1H-pyrazol-5-yl)methyl)-3,3-dimethyl-2-oxo-N-(2,4,6-trifluorobenzyl)indoline-6-carboxamide] | ≤ 1 µM | ≤ 1 µM | ≤ 1 µM | 1 to 10 µM | 1 to 10 µM |
